14 compounds from PubChem BioAssay (NCI) can be followed below.

Among the test systems are HOP-62 NSCLC; HOP-92 NSCLC; XF 498 CNS; KM20L2 colon; M14 melanoma; NCI-H522 lung; BT-549 breast; SK-OV-3 ovarian; HS 578T breast; SR leukemia; DMS 114 small cell lung.
What all share (experiment): NCI-60 cell line screen, 48 h

Values joined by “and” are separate entries in the source; they are usually repeats but may differ in a detail not shown here. Identical values can stand only once.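 96-well plates; 48 h exposure; 5 concentrations. Endpoints by linear interpolation between flanking doses. Not reached: highest tested concentration assigned. GI50 is the concentration that inhibits growth by half. At the TGI there is no net growth.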

Take `CC1OC(O[C@@H]2C=C3CC[C@@H]4[C@H](CC[C@]5(C)[C@@H](c6ccc(=O)oc6)CC[C@]45O)[C@@]3(C)CC2)C(O)C(OC2OC(CO)C(O)C(O)C2O)C1O` (stereo not given in full): the TGI in the test on HOP-62 NSCLC turned out to be 0.00151 µM; in the test with XF 498 CNS it was 0.0276 µM; with KM20L2 colon, 0.0545 µM; in the test on M14 melanoma, 0.0148 µM; with NCI-H522 lung it was 0.000427 µM. Besides, the GI50 in the test on HOP-92 NSCLC was 0.000166 µM; in the test on M14 melanoma, 0.00096 µM.
As to `Cc1cc(O)c2c(c1)C(C1c3cccc(O)c3C(=O)c3c(O)cc(C)cc31)c1cccc(O)c1C2=O` (stereo not given), the TGI was 0.94 µM in the test on BT-549 breast; 3 µM in the test on HOP-62 NSCLC; 1.69 µM with SK-OV-3 ovarian; 0.706 µM with HOP-92 NSCLC; 33.3 µM in the test on HS 578T breast; 3.32 µM in the test with SR leukemia. Besides, the TGI with M14 melanoma was found to be 7.49 µM; in the test with NCI-H522 lung, 3.44 µM.
For `O=S(O)c1cc(Cl)c(O)c(Cl)c1`, the TGI with DMS 114 small cell lung, with HOP-62 NSCLC, with SK-OV-3 ovarian, in the test on XF 498 CNS, in the test with SR leukemia and in the test on M14 melanoma was greater than 100 µM in each case. Moreover, in the test with NCI-H522 lung, the TGI is greater than 100 µM.
For the compound `CC(=O)OCC1OC(N=[N+]=[N-])C(OC(C)=O)C(OC(C)=O)C1OC1OC(COC(C)=O)C(OC(C)=O)C(OC(C)=O)C1OC(C)=O` (stereo not given), the TGI in the test on DMS 114 small cell lung, in the test with SK-OV-3 ovarian, in the test on XF 498 CNS, in the test with KM20L2 colon, in the test with M14 melanoma and in the test with NCI-H522 lung was greater than 100 µM throughout.
Take `O=C1C(=C([O-])c2ccccc2)C(=O)c2ccccc21.O=C1C(=C([O-])c2ccccc2)C(=O)c2ccccc21.[Ni+2]`: in the test on SK-OV-3 ovarian, the GI50 was 23.1 µM and the TGI was found to be 98.4 µM. In the test with KM20L2 colon, the GI50 was greater than 100 µM and the TGI is greater than 100 µM.
Regarding `COc1ccc([I+]c2ccc(OC)cc2)cc1`, the GI50 in the test with BT-549 breast is 11.1 µM; with HOP-62 NSCLC, 3.34 µM; in the test on HOP-92 NSCLC, 3.27 µM; in the test with HS 578T breast it was 18.8 µM; with SR leukemia it was 3.81 µM; in the test with M14 melanoma it was 13.4 µM. Besides, in the test with NCI-H522 lung, the GI50 was 38.3 µM. In addition, the TGI in the test with BT-549 breast is greater than 100 µM; in the test on HOP-62 NSCLC, > 73.2 µM and 92 µM; in the test with SK-OV-3 ovarian it was greater than 100 µM; in the test on HOP-92 NSCLC, greater than 100 µM; in the test on HS 578T breast, greater than 100 µM; in the test on SR leukemia, greater than 100 µM. Also, the TGI with M14 melanoma and in the test with NCI-H522 lung was greater than 100 µM throughout.
`Cn1c(=O)c2[nH]c(SC/C(=N/O)c3ccc(Br)cc3)nc2n(C)c1=O`: the GI50 is 2.55 µM in the test on BT-549 breast; 2.3 µM in the test on HOP-62 NSCLC; 2.02 µM in the test with HOP-92 NSCLC; 3.05 µM in the test with HS 578T breast; 2.83 µM in the test on SR leukemia; 45.5 µM in the test with M14 melanoma. In addition, the TGI is 7.36 µM with BT-549 breast; 5.09 µM with HOP-62 NSCLC; 4.56 µM in the test with HOP-92 NSCLC; 7.9 µM in the test on HS 578T breast; greater than 100 µM in the test on SR leukemia; greater than 100 µM in the test with M14 melanoma.
As for `COc1cc2c[n+](C)c3c4cc(OC)c(OCc5ccccc5)cc4c(OCc4ccccc4)cc3c2cc1OC`, the TGI is 9.05 µM in the test on BT-549 breast; 39.3 µM in the test on HOP-62 NSCLC; greater than 52.8 µM in the test on SK-OV-3 ovarian; 8.51 µM with HOP-92 NSCLC; 6 µM with SR leukemia; 21.6 µM with M14 melanoma. Besides, the TGI in the test with NCI-H522 lung is 3.4 µM.
As for `O=c1[nH]c(=O)n(C2CC(O)C(CO)O2)cc1Br` (stereo not given), the TGI in the test with BT-549 breast, with HOP-62 NSCLC, in the test with SK-OV-3 ovarian, in the test with HOP-92 NSCLC, in the test on HS 578T breast and in the test on M14 melanoma was greater than 100 µM each time. Also, in the test with NCI-H522 lung, the TGI was greater than 100 µM.
As for `COc1cc(O)c(Cc2ccccc2O)c(O)c1C(=O)CCc1ccccc1`, the TGI with DMS 114 small cell lung worked out at 14.5 µM; with HOP-62 NSCLC, 9.89 µM; in the test with SK-OV-3 ovarian, 18.2 µM; with HOP-92 NSCLC, 10.8 µM; in the test on XF 498 CNS it was 7.76 µM; with KM20L2 colon, 24.6 µM. In addition, in the test on NCI-H522 lung, the TGI stood at 9.21 µM.
For `COc1ccc2c3/c(=C\c4ccc(N(C)C)cc4)c4ccccc4n3[n+](C)c2c1`, the GI50 with BT-549 breast is 0.129 µM; in the test with SK-OV-3 ovarian it was 1.04 µM; in the test with HOP-92 NSCLC it was 0.236 µM; in the test with HS 578T breast, 0.162 µM; in the test with NCI-H522 lung, 0.182 µM. Besides, the TGI is 2.7 µM in the test with BT-549 breast, 2.57 µM with SK-OV-3 ovarian, 1.78 µM with HOP-92 NSCLC and greater than 100 µM in the test with NCI-H522 lung.
As for `COc1ccccc1C(=O)OCC1CCCN2CCCCC12` (stereo not given), the TGI was 54.6 µM with BT-549 breast, greater than 100 µM in the test on SK-OV-3 ovarian, greater than 100 µM in the test with HOP-92 NSCLC and greater than 100 µM in the test on HS 578T breast.
As to `NC(=O)/N=C/c1c(O)c2ccccc2oc1=O`, the TGI with DMS 114 small cell lung, with HOP-62 NSCLC, in the test on HOP-92 NSCLC, in the test with KM20L2 colon and with M14 melanoma was greater than 100 µM in each case.
Regarding `COC(=O)c1c(O)ccc2c1c1c(n2Cc2cccc(C)c2)C(=O)c2ccccc2C1`, the TGI is greater than 75 µM with BT-549 breast; 51.6 µM with HOP-62 NSCLC; greater than 75 µM with SK-OV-3 ovarian; greater than 75 µM with HOP-92 NSCLC; greater than 75 µM with HS 578T breast; 29.4 µM in the test on SR leukemia. Besides, the TGI in the test with M14 melanoma turned out to be 47.1 µM.
